Results reported in a melting point compilation (Tetko et al.; mined from patent text by program, amines drawn as free bases though some values may be those of a salt).

| SMILES | melting point |
| --- | --- |
| COc1ccc(-c2cc3c(N4CCOCC4)nnc(N4CCOCC4)c3c(C)n2)cc1 | 206 to 209 °C |
| CC(=O)c1cccc2oc(C(=O)Nc3ccc(-c4ccc(S(=O)(=O)NC(C(=O)O)C(C)C)cc4)cc3)c(C)c12 (stereo unspecified) | 228 to 235 °C |
| Cc1cn(C)c2c1N(C(=O)CCl)c1ccccc1NC2=O | 267 to 269 °C |
| CCOC(=O)C1=C(CO)NC=C(C(=O)OC)C1c1ccccc1Cl (stereo unspecified) | 187 to 188 °C |
| CN1C(=S)N(c2ccc(C#N)c(C(F)(F)F)c2)C(=O)C1(CF)CF | 122 to 123 °C |
| Cc1ccc(CSCc2ccc(C)cc2)cc1 | 74 to 76 °C |
| CC(C)(C)OC(=O)NC(=N)NC(=O)OC(C)(C)C | 144 °C |
| O=C(COc1cc(F)ccc1C(=O)NCc1cccc([N+](=O)[O-])c1)OC1CCCCC1 | 87 to 90 °C |
| CCCCCCCCCCCCCCCCCC(=O)NCCOC(=O)CCc1cc(C(C)(C)C)c(O)c(C(C)(C)C)c1 | 52 to 55 °C |
| COc1cccc(Nc2cc(=S)ss2)c1 | 131 to 134 °C |
| CCc1nc2c(cnn2CC)c(NC2CCOCC2)c1CNC(=O)c1cc(C)cc(C(=O)NCc2ccc(OC)c(-c3cccc(CN4CCNC(C)C4)c3)c2)c1 (stereo unspecified) | 121 to 123 °C |
| CC(=O)Nc1nc2c(Oc3cc(-c4ccc(C(F)(F)F)cc4NC(=O)C4CCCCN4CC(C)C)ncn3)cccc2s1 (stereo unspecified) | 153 to 155 °C |
| O=C(N[C@@H](CO)C(=O)N1CC(C(=O)O)C1)OCc1ccccc1 | 138 to 143 °C |
| CCCOC(=O)Oc1ccc(-c2ccc(C#N)cc2)cc1 | 70.2 to 70.9 °C |
| CC1(C)c2ccccc2N2Cc3cc(N=Nc4ccc([N+](=O)[O-])cc4)ccc3OC21c1ccccc1 (stereo unspecified) | 200 °C |
| c1ccc2c(c1)CC[C@H]1O[C@@H]21 | 47 to 48 °C |
| COc1cccc(C(=O)Nc2ccc(C(=O)c3ccccc3)cc2)c1 | 139 to 141 °C |
| COc1ccc(NCc2cc(OC)c(OC)c(OC)c2)cc1 | 73 to 74 °C |
| Cc1c(CC(=O)O)c(=O)oc2cc(C3OC(CO)C(O)C(O)C3O)ccc12 (stereo unspecified) | 186 to 188 °C |
| Cc1cccc(-c2[nH]c(C(C)C)nc2-c2cccc(-c3ccc(F)cc3F)c2)n1 | 70 to 72 °C |
| CC(C)(OCc1nn(Cc2ccccc2)c2ccccc12)C(=O)NCC(=O)O | 157 to 158 °C |
| COC(=O)c1ccc(CN2CC2C#N)c(OC)n1 (stereo unspecified) | 156 to 158 °C |
| CCCCCC(=O)NCCc1ccc(S(=O)(=O)NC(=O)c2ccc(C(=O)NCC(=O)OC)nc2)cc1 | 128 to 130 °C |
| CCN1C=C(C(=O)OC)C(=O)CC1c1ccc(OC)c(OC)c1 (stereo unspecified) | 134 to 135 °C |

| SMILES | melting point |
| --- | --- |
| NC1=C(N)C(=O)C(N)=C(N)C1=O | 260 to 262 °C |
| CCn1nc2c(N)nc3ccccc3c2c1CCc1ccccc1 | 179 to 181 °C |
| CC#CCOc1ccc(S(=O)(=O)N2CCOCC2C(=O)O)cc1 (stereo unspecified) | 40 to 42 °C |
| CC1C(O)C(C(C)(C)O)C(=O)N1c1ccc(C#N)c(Cl)c1 (stereo unspecified) | 131 to 132 °C |
| CCNC(=O)[C@@H]1CCCN1C(=O)[C@H](C)NC(=O)C1CCCCC1 | 190 to 192 °C |
| CN=C(NC#N)Nc1ccc2c(c1)CCC1CC(=O)NN=C21 (stereo unspecified) | 289 °C |
| C=C1NC(=O)N(CCCC)C1=O | 73 °C |
| CCCCc1ncc(/C=C(\Cc2cccs2)C(=O)O)n1Cc1ccc(C(=O)O)cn1 | 212 to 213 °C |
| CNC(=O)Nc1ccc(OCCCN2CCC(C(O)(c3ccc(F)cc3)c3ccc(F)cc3)CC2)cc1 | 177 to 178 °C |
| O=C1NCCc2c(OCc3ccccc3)cccc21 | 171 to 173 °C |
| CC(O)C(=O)Nc1ccc(C2=NNC(=O)NC2C)cc1 (stereo unspecified) | 217 to 225 °C |
| O=C(Nc1cc(Cl)ccn1)c1ccccn1 | 118 to 120 °C |
| CC(C)c1cc(Oc2ccccc2)cc(C2CCCCC2)c1N | 108 to 110 °C |
| NC(=O)N(O)CCNC(=O)c1csc(-c2ccccc2)n1 | 188 to 192 °C |
| CCC(C)(C)NC(Nc1cc(C(F)(F)F)cc(C(F)(F)F)c1)=C(C#N)S(=O)(=O)c1ccc(Cl)cc1 | 205 to 207 °C |
| CNc1nc(-c2cccc(NC(=O)c3ccc(OC)c(OC4CCCC4)c3)c2)c2cc(OC)c(OC)cc2n1 | 129 to 131 °C |
| Cc1ccc(C(CCN(C(C)C)C(C)C)(CCN(C(C)C)C(C)C)C(N)=O)cc1 | 97 to 100 °C |
| NC(=O)N1CC(Oc2cccc(C(F)(F)F)c2)C1 | 151 to 152 °C |
| O=C(CCl)Cc1ccc(Cl)cc1 | 40.5 to 45.5 °C |
| N#Cc1cnc2c(c1Nc1ccc(Cl)cc1Br)C=C1N=CN=C1C2 | 244 to 246 °C |
| COc1ccc(-c2c(N)cnc3ccc(Cl)cc23)c(OC)c1OC | 180 to 181 °C |
| CCOC(=O)c1ccc2nc(NC(C)=O)n(S(=O)(=O)N(C)C)c2c1 | 155 to 157 °C |
| Cc1c(-c2cc(Nc3cc4n(n3)CCN(C)C4)c(=O)n(CO)n2)cccc1N1Cc2cc(C(C)(C)C)sc2C1=O | 185 to 187 °C |
| C=Cc1nc(C#N)c(C#N)n1CC | 66 to 70 °C |

| SMILES | melting point |
| --- | --- |
| CCOC(=O)c1cn(NCC=O)c2c(OCc3ccccc3)c(F)c(F)cc2c1=O | 180 to 181 °C |
| COC(=O)c1ccc(OS(=O)(=O)C(F)(F)F)c(C23CC4CC(CC(C4)C2)C3)c1 | 95 °C |
| CCOC(=O)CCCC(=O)c1ccc(F)cc1 | 46 to 47 °C |
| O=C1OC(=Cc2ccccc2C(F)(F)F)C(O)=C1c1ccc(-c2ccccc2)cc1 | 228 to 230 °C |
| O=S1(=O)NCN(C2CCCCCC2)c2ccc(Cl)cc21 | 216 to 218 °C |
| COc1cc(OC)nc(NC(=O)NS(=O)(=O)c2ncccc2C(CCl)OC(C)=O)n1 (stereo unspecified) | 159 to 161 °C |
| CCOC(=O)C1=C(N)N=C(OCC)C(C(=O)OCC)C1c1ccc(C)cc1 (stereo unspecified) | 119 °C |
| Nc1ccc(NC(=O)OCc2ccccc2)c(O)c1 | 148 °C |
| CCOC(=O)C1CCc2ccc(OC)cc2C1 (stereo unspecified) | 125 to 127 °C |
| CCN(CC)C(=O)c1cc(-c2ccccc2)ccc1-c1ccccc1 | 128 to 130 °C |
| CS(=O)(=O)N1CCN(C(=N)Nc2ccccc2-c2ccccc2)CC1 | 178 to 180 °C |
| COc1ccc(C(=O)c2cccc(OCc3nc(-c4ccccc4)oc3C)c2)c(OCCOC(C)=O)c1 | 90 to 91 °C |
| Cc1noc(CCCCCCCOc2ccc(C3=NCCO3)cc2)c1CN1CCCC1 | 98 to 99 °C |
| O=C(c1ccc(-c2cccc(C(F)(F)F)c2)o1)N1Cc2c([nH]c3ccccc3c2=O)C1c1ccc2c(c1)OCO2 (stereo unspecified) | 219 to 221 °C |
| CC(=O)N1CCC[C@H]1C(=O)Nc1ccc(S(N)(=O)=O)cc1 | 283 to 285 °C |
| CC(=O)Nc1cccc2c1C(=O)c1c-2n[nH]c1-c1ccccc1 | > 300 °C |
| COC(=O)[C@@H](N)CCc1nnnn1CC(=O)N[C@H](C)C(=O)OC | 87 to 89 °C |
| CC(=O)NC[C@H]1CN(c2ccc(C3CCN(S(C)(=O)=O)CC3)c(F)c2)C(=O)O1 | 240 to 242 °C |
| CC1CCCCN1C(=O)C1Cc2ccccc2N1c1ccc(=O)n(C)n1 (stereo unspecified) | 96 to 98 °C |
| FC(F)(F)c1nnc(S)s1 | 72 to 73 °C |
| CC(=S)NC[C@H]1CN(c2ccc(N3CCC4(CC3)OCCO4)c(F)c2)C(=O)O1 | 141 to 143 °C |
| COC(=O)c1ccccc1OCCOc1cccc2ccccc12 | 132 to 137 °C |
| COC(=O)C(CCC(C)(C)Cl)N(C)S(=O)(=O)NC(=O)OCc1ccccc1 (stereo unspecified) | 77 to 78 °C |
